Results from US11267826B2, “Penicillin-binding protein inhibitors” (priority 2017, dated 2022).

Columns and labels:
[1] = tested on: hyper-permeable E. coli 901C; test: Broth microdilution MIC assay, hyper-permeable E. coli; format: cell-based; details: Escherichia coli, read-out: E. coli 901C MIC
Procedure, shortened: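 Visual no-growth endpoint defines the MIC. Inoculum of 5×10^5 CFU/mL in divalent-cation-supplemented Mueller-Hinton broth was exposed to 2-fold dilution series of compound, then incubated 16-20 hours at 37° C per CLSI.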

[2] = tested on: engineered strains of Escherichia coli harboring select single β-lactamases; test: MIC across the panel of engineered E. coli strains harboring select single β-lactamases; format: cell-based; details: strains expressing β-lactamases compared with control strain, result in words
Protocol: To determine if test compounds were affected by various known β-lactamases, the inhibition of the growth of engineered strains of Escherichia coli harboring select single β-lactamases were tested. These strains were constructed by cloning the gene encoding the particular β-lactamase into the NdeI and BamHI restriction endonuclease sites of plasmid pLBII, placing the gene(s) under the control of the Lac promoter.

E. coli PBP2 = target: T1, E. coli PBP2 (Escherichia coli, UniProt P0AD65); test: Bocillin FL competition binding assay, PBP2; design: species or system Escherichia coli K12; details: 15 min pre-incubation
T1 construct: 100 μg's of total membrane protein extracts containing PBPs; endogenous in cells; host or cells: Escherichia coli K12, membrane protein fraction
T1 sequence (P0AD65 whole entry): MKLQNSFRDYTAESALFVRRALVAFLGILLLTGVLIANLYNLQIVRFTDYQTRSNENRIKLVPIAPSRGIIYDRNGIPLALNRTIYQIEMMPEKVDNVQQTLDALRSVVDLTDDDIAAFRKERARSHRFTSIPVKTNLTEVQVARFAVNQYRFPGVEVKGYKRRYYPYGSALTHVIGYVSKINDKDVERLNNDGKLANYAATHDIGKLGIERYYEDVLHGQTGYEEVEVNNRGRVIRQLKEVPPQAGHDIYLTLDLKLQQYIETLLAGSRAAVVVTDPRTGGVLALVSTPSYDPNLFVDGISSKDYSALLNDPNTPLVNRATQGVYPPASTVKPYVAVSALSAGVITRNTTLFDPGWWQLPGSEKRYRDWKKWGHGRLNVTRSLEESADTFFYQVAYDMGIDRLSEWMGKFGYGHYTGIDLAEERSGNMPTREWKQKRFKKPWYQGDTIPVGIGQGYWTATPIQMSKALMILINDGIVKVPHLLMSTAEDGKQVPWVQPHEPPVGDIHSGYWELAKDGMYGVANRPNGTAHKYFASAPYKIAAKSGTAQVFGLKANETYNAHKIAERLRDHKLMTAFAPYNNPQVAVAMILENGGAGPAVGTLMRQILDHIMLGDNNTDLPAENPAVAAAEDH
Procedure, shortened: (§1)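 E. coli K12 membrane extracts (100 µg protein) pre-incubated 15 min with compound (0.005–2,480 µg/mL) in pH 7 phosphate/350 mM NaCl, then labelled with Bocillin FL 30 min at 35°C; SDS-PAGE fluorescence (ex 450/em 520 nm), μg/mL reported. PBP1a/1b unresolved, reported combined.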

[3] = tested on: E. coli DH5a harboring OXA-48; test: Broth microdilution MIC, engineered E. coli expressing OXA-48; format: cell-based; details: Escherichia coli, read-out: MIC, β-lactamase OXA
Protocol: (§2) To determine the ability of test compounds to potentiate the inhibition of the growth of bacterial strains, classic cell based broth microdilution MIC assays were employed. MIC assays are performed according to CLSI methods except where otherwise noted (CLSI, 2011 and CLSI, 2009). The reference strain S. aureus ATCC 29213 and the hyper-permeable E. coli 901C were used to determine the ability of the PBP compounds to inhibit bacterial growth. Briefly, cryo-preserved bacterial cultures of clinical strains are streaked for isolation on appropriate agar medium, in this case Mueller Hinton II agar. Following incubation to allow formation of colonies these plates are sealed with parafilm and stored refrigerated for up to two weeks. For preparation of assay inocula and to ensure low variability, at least 5 colonies are picked from the agar plates with an inoculating loop and aseptically transferred to a culture tube containing 3 mL of Mueller-Hinton Broth (supplemented with divalent cations to required levels based on Manufacturers' certification). The broth culture is grown for 3-5 hours at 37° C. with shaking at 200 rpm. Meanwhile, 2-fold serial dilutions of test compounds are conducted in a 96 well plate with a final volume of 75 μL per well at 2-fold the final desired concentration. After the dilution plates are set up the growing cultures are then diluted in a cuvette containing MH II broth and the optical density is measured at 600 nm. Inocula are diluted such that 75 μL of this culture in Mueller-Hinton Broth results in a starting bacterial concentration of 5×10^5 CFU/mL when added to the dilution plates. The plates are incubated 16-20 hours at 37° C. The MIC is read visually as the lowest concentration well with no bacterial growth.
(§3) To determine if test compounds were affected by various known β-lactamases, the inhibition of the growth of engineered strains of Escherichia coli harboring select single β-lactamases were tested. […]

[4] = tested on: E. coli DH5a harboring CTX-M15; test: Broth microdilution MIC, engineered E. coli expressing CTX-M15; format: cell-based; details: Escherichia coli, read-out: MIC, β-lactamase CTXM
Protocol: as §2, §3

[5] = tested on: E. coli DH5a harboring NDM-1; test: Broth microdilution MIC, engineered E. coli expressing NDM-1; format: cell-based; details: Escherichia coli, read-out: MIC, β-lactamase NDM
Protocol: as §2, §3

[6] = tested on: E. coli DH5a with pLBII plasmid with no β-lactamase gene; test: Broth microdilution MIC, engineered E. coli control strain (pLBII plasmid, no β-lactamase gene); format: cell-based; details: Escherichia coli, read-out: MIC, β-lactamase None
Protocol: as §2, §3

E. coli K12 PBP1a/b = test: Bocillin FL competition binding assay, PBP1a/1b combined; design: species or system Escherichia coli K12; details: 15 min pre-incubation, PBP 1a/1b combined
Procedure, shortened: as §1

[7] = tested on: E. coli DH5a harboring VIM-2; test: Broth microdilution MIC, engineered E. coli expressing VIM-2; format: cell-based; details: Escherichia coli, read-out: MIC, β-lactamase VIM
Protocol: as §2, §3

[8] = tested on: E. coli DH5a harboring IMP-18; test: Broth microdilution MIC, engineered E. coli expressing IMP-18; format: cell-based; details: Escherichia coli, read-out: MIC, β-lactamase IMP
Protocol: as §2, §3

Nc1nc(/C(=N/O)C(=O)N[C@H]2Cc3cccc(C(=O)O)c3OB2O)cs1 [Example 6, (R,Z)-3-(2-(2-aminothiazol-4-yl)-2-(hydroxyimino)acetamido)-2-hydroxy-3,4-dihydro-2H-benzo[e][1,2]oxaborinine-8-carboxylic Acid]
MIC [1]: < 64 µg/mL | Effect of expressed β-lactamase on MIC [2]: the same MIC values in strains regardless of the β-lactamase expressed | E. coli PBP2 Potency (E. coli PBP2): B (B represents a potency between 64 and 1000 μg/mL inclusive) | MIC [3]: 16 µg/mL | MIC [4]: 16 µg/mL | MIC [5]: 16 µg/mL | MIC [6]: 16 µg/mL | E. coli K12 PBP1a/b Potency (E. coli K12 PBP1a/b): C (C represents a potency of <64 μg/mL) | MIC [7]: 16 µg/mL | MIC [8]: 16 µg/mL
